According to BindingDB's records for doi:10.1016/0960-894X(95)00037-T (1995):

Legend:
B2 bradykinin receptor [1] = target: T1, B2 bradykinin receptor (Homo sapiens, UniProt P30411); test: ChEBML_40431
T1 sequence (P30411 whole entry): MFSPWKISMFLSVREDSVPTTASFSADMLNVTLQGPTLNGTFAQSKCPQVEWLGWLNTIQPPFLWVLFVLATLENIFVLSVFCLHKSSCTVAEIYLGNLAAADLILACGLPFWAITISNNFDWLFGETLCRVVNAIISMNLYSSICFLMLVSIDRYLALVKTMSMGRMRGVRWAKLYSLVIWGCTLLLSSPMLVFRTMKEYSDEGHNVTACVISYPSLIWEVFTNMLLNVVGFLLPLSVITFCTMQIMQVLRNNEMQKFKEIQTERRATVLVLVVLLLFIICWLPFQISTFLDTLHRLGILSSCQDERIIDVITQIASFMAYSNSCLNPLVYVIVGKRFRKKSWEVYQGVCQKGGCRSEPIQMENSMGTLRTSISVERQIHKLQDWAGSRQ
Description: (§1) Tested for binding affinity against human IMR-90 Bradykinin receptor B2

B2 bradykinin receptor [2] = target: T1, B2 bradykinin receptor; test: as §1

## CCCC[P+](CCCC)(CCCC)Cc1ccc(NC(=O)C2Cc3ccccc3CN2C(=O)[C@H](CCc2ccccc2)N/C(=N/C2CCCCC2)NC2CCCCC2)cc1 (stereo partly drawn) [tributyl[(4-{2-[(2S)-2-{[(1E)-(cyclohexylamino)(cyclohexyliminiumyl)methyl]amino}-4-phenylbutanoyl]-1,2,3,4-tetrahydroisoquinoline-3-amido}phenyl)methyl]phosphanium dichloride]
B2 bradykinin receptor [1]
  Ki: 1000 nM
B2 bradykinin receptor [2]
  Ki: 1000 nM
